Experimental data reported in ChEMBL document CHEMBL1201862, “PubChem BioAssay data set” (2004).
One block for each compound: values may come before it. Calls of active or inactive are those of the source.

Key:
[1] = molecular target: T1, Calpain-2 catalytic subunit (Sus scrofa, UniProt P43367); test: m-calpain protease blockers, concentration series – biochemical, fluorogenic peptide substrate, dose response (AID 1420); assay type: functional
T1 sequence (P43367 whole entry): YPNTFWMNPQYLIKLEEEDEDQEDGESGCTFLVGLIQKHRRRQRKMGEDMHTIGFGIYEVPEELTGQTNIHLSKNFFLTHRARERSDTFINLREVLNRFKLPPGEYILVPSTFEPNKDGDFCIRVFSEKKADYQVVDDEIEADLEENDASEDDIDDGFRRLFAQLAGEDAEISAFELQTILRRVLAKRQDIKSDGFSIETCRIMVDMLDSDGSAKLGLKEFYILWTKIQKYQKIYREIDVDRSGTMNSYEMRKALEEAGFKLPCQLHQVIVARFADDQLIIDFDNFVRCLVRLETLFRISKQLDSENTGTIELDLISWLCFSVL

[2] = molecular target: T2, Rac GTPase-activating protein 1 (Homo sapiens, UniProt Q9H0H5); test: blockers of MgcRacGAP-driven Rac1 GTP hydrolysis – biochemical, ADP Hunter fluorescence, primary and confirmatory, confirmation (AID 624330); assay type: functional
T2 sequence (Q9H0H5 whole entry): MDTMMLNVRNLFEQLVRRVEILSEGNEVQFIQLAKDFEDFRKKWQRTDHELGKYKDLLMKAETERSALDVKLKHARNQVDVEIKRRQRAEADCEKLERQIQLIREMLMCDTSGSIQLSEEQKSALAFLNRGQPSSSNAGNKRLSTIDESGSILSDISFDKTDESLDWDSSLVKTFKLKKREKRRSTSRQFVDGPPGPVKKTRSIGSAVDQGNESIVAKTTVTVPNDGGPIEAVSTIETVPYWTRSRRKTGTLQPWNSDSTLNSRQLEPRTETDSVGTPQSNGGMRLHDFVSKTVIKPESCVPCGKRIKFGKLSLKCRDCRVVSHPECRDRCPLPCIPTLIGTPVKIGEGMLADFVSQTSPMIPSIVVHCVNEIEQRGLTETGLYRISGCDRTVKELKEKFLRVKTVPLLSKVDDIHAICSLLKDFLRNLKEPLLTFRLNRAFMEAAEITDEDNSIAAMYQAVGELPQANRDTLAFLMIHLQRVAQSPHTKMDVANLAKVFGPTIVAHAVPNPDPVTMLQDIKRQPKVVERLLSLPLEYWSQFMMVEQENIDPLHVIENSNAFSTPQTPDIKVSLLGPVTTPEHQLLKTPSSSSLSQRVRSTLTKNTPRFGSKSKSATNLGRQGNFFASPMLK

[3] = molecular target: T3, Polyadenylate-binding protein 1 (Homo sapiens, UniProt P11940); test: MLLE binding blockers, Cy5 peptide tracer – biochemical, fluorescence polarization, Cy5-PAM2 peptide, secondary, miRNA deadenylation inhibitor project, dose response (AID 602260); assay type: functional; details: read-out: IC50_Mean
[4] = molecular target: T3, Polyadenylate-binding protein 1; test: MLLE domain peptide-binding blockers, IC50 – biochemical, fluorescence polarization, FITC-PAM2 peptide, dose response (AID 602259); assay type: functional; details: read-out: IC50_Mean
BJ [5] = test: BJ-TERT-LT-ST fibroblast viability loss – cell-based, RAS-independent, luminescence, dose response (AID 1935); assay type: functional; details: Homo sapiens;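 note: BJ fibroblasts immortalized with TERT plus LT and ST oncogenes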
[6] = DRD fibroblast viability loss – cell-based, non-viral oncogenic, luminescence, dose response (AID 1934); assay type: functional; details: Homo sapiens
BJ [7] = test: BJ-TERT fibroblast viability loss – cell-based, RAS-independent, luminescence, dose response (AID 1933); assay type: functional; details: Homo sapiens
BJ [8] = test: cells; assay type: functional, cell-based; details: Homo sapiens
cells [9] = assay type: functional, cell-based
cells [10] = assay type: functional, cell-based; remark: listed apart in the source
[11] = molecular target: T4, Corticotropin-releasing factor receptor 2/Corticotropin-releasing factor-binding protein (Homo sapiens, UniProt P24387+Q13324); test: Dose Response confirmation of uHTS hits for small molecule antagonists of the CRF-binding protein and CRF-R2 receptor complex.; assay type: functional; details: read-out: IC50_Mean
T4 sequence (Q13324 whole entry): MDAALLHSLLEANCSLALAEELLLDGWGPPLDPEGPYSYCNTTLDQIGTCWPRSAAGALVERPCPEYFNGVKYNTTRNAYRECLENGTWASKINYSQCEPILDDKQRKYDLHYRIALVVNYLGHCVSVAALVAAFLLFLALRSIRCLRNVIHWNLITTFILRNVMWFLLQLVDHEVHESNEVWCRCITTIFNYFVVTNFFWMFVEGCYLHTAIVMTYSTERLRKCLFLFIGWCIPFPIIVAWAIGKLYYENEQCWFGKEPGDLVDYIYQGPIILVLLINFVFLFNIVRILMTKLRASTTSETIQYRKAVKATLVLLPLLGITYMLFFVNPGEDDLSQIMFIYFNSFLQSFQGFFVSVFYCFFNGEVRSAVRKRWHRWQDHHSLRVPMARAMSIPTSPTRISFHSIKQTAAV
T4 sequence (P24387 whole entry): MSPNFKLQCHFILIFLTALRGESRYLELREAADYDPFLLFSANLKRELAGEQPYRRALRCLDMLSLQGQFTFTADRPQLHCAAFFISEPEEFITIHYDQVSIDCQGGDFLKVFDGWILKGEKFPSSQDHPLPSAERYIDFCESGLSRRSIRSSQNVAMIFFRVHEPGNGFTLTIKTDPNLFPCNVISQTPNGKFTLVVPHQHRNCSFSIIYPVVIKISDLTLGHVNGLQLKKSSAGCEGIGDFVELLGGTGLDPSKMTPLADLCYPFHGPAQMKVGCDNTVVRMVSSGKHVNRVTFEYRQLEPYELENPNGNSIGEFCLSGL

[12] = molecular target: T4, Corticotropin-releasing factor receptor 2/Corticotropin-releasing factor-binding protein; test: activators of CRF receptor 2 with binding protein – uHTS hits, confirmation (AID 602473); assay type: functional; details: read-out: EC50_Mean
Paired box protein Pax-8 = Paired box protein Pax-8 (Homo sapiens, UniProt Q06710); test: PAX8 transcriptional activity inhibition in RMG-I – RMG-I cells, luciferase, cherry-pick, dose response (AID 687027); assay type: functional, cell-based;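 note: luciferase reporter driven by Pax8 target thyroperoxidase promoter measured by SteadyGlo luminescence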
Cytochrome P450 2D6 = Cytochrome P450 2D6 (Homo sapiens, UniProt P10635);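 note: CYP2D6 member of a cytochrome P450 panel assay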
[13] = Luminescence Cell-Based Dose Response HTS to Identify Activators of Luciferase Translation or Activity in H4 […] Cells. [Related pubchem assays: 1829 (Project Summary), 1814 (Primary HTS)]; assay type: functional

T3 sequence (P11940 whole entry, the tested form may be a part): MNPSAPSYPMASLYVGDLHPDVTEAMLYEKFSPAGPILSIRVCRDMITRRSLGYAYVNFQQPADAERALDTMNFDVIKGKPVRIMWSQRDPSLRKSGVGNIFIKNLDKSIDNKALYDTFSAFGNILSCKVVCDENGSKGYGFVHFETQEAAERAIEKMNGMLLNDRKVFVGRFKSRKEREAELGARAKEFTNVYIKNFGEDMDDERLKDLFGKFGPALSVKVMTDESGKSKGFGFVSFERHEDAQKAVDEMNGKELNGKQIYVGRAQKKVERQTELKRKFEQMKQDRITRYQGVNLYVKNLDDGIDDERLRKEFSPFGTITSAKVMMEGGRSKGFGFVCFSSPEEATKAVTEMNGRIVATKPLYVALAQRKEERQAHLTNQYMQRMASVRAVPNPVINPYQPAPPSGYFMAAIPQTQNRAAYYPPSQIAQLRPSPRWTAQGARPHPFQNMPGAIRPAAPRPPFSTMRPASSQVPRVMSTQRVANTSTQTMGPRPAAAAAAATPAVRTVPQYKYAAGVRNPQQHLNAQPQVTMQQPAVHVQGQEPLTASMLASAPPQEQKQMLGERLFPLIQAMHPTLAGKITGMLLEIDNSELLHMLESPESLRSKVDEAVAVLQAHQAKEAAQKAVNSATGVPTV
Paired box protein Pax-8, sequence (Q06710 whole entry): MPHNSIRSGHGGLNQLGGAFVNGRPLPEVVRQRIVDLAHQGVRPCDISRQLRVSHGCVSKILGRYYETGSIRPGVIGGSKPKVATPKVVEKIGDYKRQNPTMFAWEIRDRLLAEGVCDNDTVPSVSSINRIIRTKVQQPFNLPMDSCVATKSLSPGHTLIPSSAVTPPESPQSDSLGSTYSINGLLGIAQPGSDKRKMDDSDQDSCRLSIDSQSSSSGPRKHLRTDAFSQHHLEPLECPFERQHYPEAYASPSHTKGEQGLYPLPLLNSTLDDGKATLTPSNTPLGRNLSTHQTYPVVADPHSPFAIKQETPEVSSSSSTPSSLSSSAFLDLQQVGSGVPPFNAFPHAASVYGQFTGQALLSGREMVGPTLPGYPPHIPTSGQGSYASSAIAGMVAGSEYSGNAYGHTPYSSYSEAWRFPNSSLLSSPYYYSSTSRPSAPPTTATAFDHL
Cytochrome P450 2D6, sequence (P10635 whole entry): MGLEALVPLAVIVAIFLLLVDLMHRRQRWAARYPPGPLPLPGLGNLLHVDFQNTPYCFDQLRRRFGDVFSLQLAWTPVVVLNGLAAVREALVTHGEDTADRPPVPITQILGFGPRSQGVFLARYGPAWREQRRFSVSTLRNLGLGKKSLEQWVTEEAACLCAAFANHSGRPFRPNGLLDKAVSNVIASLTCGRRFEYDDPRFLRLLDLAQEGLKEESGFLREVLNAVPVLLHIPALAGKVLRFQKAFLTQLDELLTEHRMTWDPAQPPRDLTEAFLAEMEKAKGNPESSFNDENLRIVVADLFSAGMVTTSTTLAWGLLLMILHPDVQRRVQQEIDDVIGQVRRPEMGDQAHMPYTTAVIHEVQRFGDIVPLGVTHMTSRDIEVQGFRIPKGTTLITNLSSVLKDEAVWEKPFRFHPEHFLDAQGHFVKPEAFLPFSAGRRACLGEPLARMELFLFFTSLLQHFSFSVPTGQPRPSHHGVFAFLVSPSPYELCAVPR

Compound: c1ccc(CNC23CC4CC(CC(C4)C2)C3)nc1
IC50 [2]: 110 µM (active)

Compound: CC(=O)/C(C#N)=C1\NC(=O)C(Cc2cc(Cl)ccc2Cl)S1 (stereo unspecified)
EC50 (BJ [5]): > 150 µM (not active)
EC50 [6]: 76.8 µM (active)
EC50 (BJ [7]): > 150 µM (not active)
EC50 (BJ [8]): 61.2 µM (active)

Compound: O=C(N/C(=C\c1ccco1)C(=O)N1CCCC1CO)c1ccccc1 (stereo unspecified)
IC50 [3]: > 66 µM (inactive)
IC50 [4]: > 66 µM (inactive)

Compound: CCCCC1=CC2=C(c3ccco3)C(=O)C(C)(OC(=O)c3ccc(OC)cc3)C(=O)C2=CN1c1ccc(OC)cc1 (stereo unspecified)
EC50 (BJ [5]): > 150 µM (inconclusive)
EC50 [6]: > 150 µM (not active)
EC50 (BJ [7]): 47.1 µM (active)
EC50 (BJ [8]): > 150 µM (not active)

Compound: CCOCCCN=C(S)Nc1cc(C)cc(C)c1
EC50 (cells [9]): > 350 µM (not active)
EC50 (cells [10]): > 350 µM (not active)

Compound: CSCc1ccc(C(=O)N2CCCC(Nc3ccc4c(c3)OCCO4)C2)o1 (stereo unspecified)
IC50 [2]: 152 µM (active)

Compound: CC(=O)c1ccc(NC(=O)C2CCCNC2=O)cc1 (stereo unspecified)
IC50 [3]: > 66 µM (inactive)
IC50 [4]: > 66 µM (inactive)

Compound: Cc1noc(C)c1COc1ccc(C(=O)OCc2nnc(-c3ccc(Cl)cc3)o2)cc1
IC50 [1]: 4.47 µM (not active)

Compound: Cn1c(SCC(=O)N2CCCc3ccccc32)nc2cccnc21
IC50 [11]: > 47.1 µM (inactive)
EC50 [12]: > 53 µM (inactive)

Compound: COc1ccnc(Oc2ccc3ccccc3c2)c1C#N
IC50 [1]: > 50 µM (not active)

Compound: COc1ccc(NC(S)=NCCc2c(C)[nH]c3ccc(OC)cc23)cc1
IC50 [1]: 30.1 µM (not active)

Compound: CCCN(CCC)C(C)C(=O)NCC1(c2ccccc2)CCCC1 (stereo unspecified)
EC50 (cells [9]): 45.6 µM (active)
EC50 (cells [10]): > 350 µM (not active)

Compound: Cc1cccnc1NC(=O)C(C)Oc1ccccc1 (stereo unspecified)
IC50 [11]: > 47.1 µM (inactive)
EC50 [12]: > 53 µM (inactive)

Compound: CN(NC(=O)c1ccccc1F)c1nc(C(F)(F)F)nc2ccccc12
EC50 (BJ [5]): 0.428 µM (inconclusive)
EC50 [6]: 0.628 µM (active)
EC50 (BJ [7]): 0.667 µM (inconclusive)
EC50 (BJ [8]): 0.813 µM (active)

Compound: O=C(CSc1ccc(-c2ccccn2)nn1)Nc1nccs1
EC50 (cells [9]): > 350 µM (not active)
EC50 (cells [10]): > 350 µM (not active)

Compound: Cc1ccc(CCC(=O)Nc2ncc(Cc3cccc(Cl)c3Cl)s2)o1
EC50 (BJ [5]): 0.216 µM (inconclusive)
EC50 [6]: 0.381 µM (active)
EC50 (BJ [7]): 0.311 µM (active)
EC50 (BJ [8]): 0.668 µM (active)

Compound: Cc1ccc(C)c(S(=O)(=O)N2CCN(CC(=O)N3CCc4ccccc4C3)CC2)c1
IC50 [2]: 93 µM (active)

Compound: Cc1ccc(-n2c(C)cc(C(=O)COC(=O)c3c(C)noc3C)c2C)cc1
EC50 [13]: 0.413 µM (active)

Compound: COc1ccccc1NC(=O)C1CCN(C(=O)c2ccc(C(C)(C)C)cc2)CC1
EC50 (cells [9]): > 350 µM (not active)
EC50 (cells [10]): > 350 µM (not active)

Compound: CC(=O)CC(=O)Nc1ccc(Nc2ccccc2)cc1
IC50 [2]: 178 µM (active)

Compound: CSc1ccc(S(=O)(=O)NCC(=O)OCC(=O)N(Cc2ccccc2)C(C)C)cc1[N+](=O)[O-]
IC50 [11]: > 47.1 µM (inactive)
EC50 [12]: > 53 µM (inactive)

Compound: COc1ccc(NC2CCCN(C(=O)c3ccc(C)nc3)C2)cc1 (stereo unspecified)
IC50 [2]: 161 µM (active)

Compound: S=C(N/N=C/c1cccc2ccccc12)Nc1cccc(Cl)c1
EC50 (cells [9]): > 350 µM (not active)
EC50 (cells [10]): > 350 µM (not active)

Now from value to compound:

IC50 [1]: 1.63 µM (not active)
Compound: COc1cc(CNc2nc(C)c([N+](=O)[O-])c(C)c2C#N)cc(OC)c1

IC50 [1]: 10.8 µM (not active)
Compound: CCCCOC(=O)c1ccc(NC(=O)c2c(Cl)ccc(Cl)c2OC)cc1

IC50 [3]: > 66 µM (inactive)
IC50 [4]: > 66 µM (inactive)
Compound: CCOC(=O)c1c(-c2ccc(C)o2)csc1NC(=S)NC(=O)c1ccc(F)cc1

IC50 [3]: > 66 µM (inactive)
IC50 [4]: > 66 µM (inactive)
Compound: O=C(CSc1ccc(-c2cccnc2)nn1)c1ccc([N+](=O)[O-])cc1

IC50 [11]: > 47.1 µM (inactive)
EC50 [12]: > 53 µM (inactive)
Compound: COc1ccccc1S(=O)(=O)Cc1ccc(C(=O)NCc2ccccc2)o1

AC50 (Paired box protein Pax-8): 0.931 µM (active)
Compound: Cc1noc(/C=C/c2ccco2)c1S(=O)(=O)N1CCC(C(=O)NC(C)c2ccccc2)CC1 (stereo unspecified)

IC50 [2]: 162 µM (active)
AC50 (Cytochrome P450 2D6): 39.8 µM (inconclusive)
Compound: COc1cccc(OC)c1OCCCN1CCOCC1

IC50 [1]: < 0.4 µM (not active)
Compound: COc1ccc(N2CCN(C(=O)Nc3ccc(S(=O)(=O)N(C)C)cc3)CC2)cc1

IC50 [2]: 99.8 µM (active)
Compound: N#CC1=C(S)N(c2ccccc2)C(c2ccc(-c3ccccc3Cl)o2)NC1=O (stereo unspecified)

IC50 [1]: 17.4 µM (not active)
Compound: O=C(CN1C(=O)NC(Cc2ccccc2)C1=O)Nc1ccccc1 (stereo unspecified)

IC50 [3]: > 66 µM (inactive)
IC50 [4]: 56.6 µM (inactive)
Compound: COc1cccc(/C=C2\SC(=O)N(CC(=O)NC3C=CS(=O)(=O)C3)C2=O)c1 (stereo unspecified)

IC50 [1]: 11.3 µM (not active)
Compound: Cc1noc(C)c1COC(=O)C(c1ccccc1)c1ccccc1

IC50 [11]: > 47.1 µM (inactive)
EC50 [12]: > 53 µM (inactive)
Compound: COc1ccc(CNC(=O)[C@H](C)NC(=O)C2CCN(S(=O)(=O)c3ccc(F)cc3)CC2)cc1

IC50 [11]: > 47.1 µM (inactive)
EC50 [12]: > 53 µM (inactive)
Compound: Cc1occc1C(=O)NC(C)C12CC3CC(CC(C3)C1)C2 (stereo unspecified)

IC50 [11]: > 47.1 µM (inactive)
EC50 [12]: > 53 µM (inactive)
Compound: CCc1ccc(Nc2nnc(SC(C)C(=O)NC3CC3)s2)cc1 (stereo unspecified)

IC50 [11]: > 47.1 µM (inactive)
EC50 [12]: > 53 µM (inactive)
Compound: O=C(CN1c2cccc3cccc(c23)S1(=O)=O)NC1CCCCC1

IC50 [11]: > 47.1 µM (inactive)
EC50 [12]: > 53 µM (inactive)
Compound: CC(/C=N/Nc1nc(C)cc(C)n1)=C\c1ccc(C(C)C)cc1

AC50 (Paired box protein Pax-8): 26.5 µM (active)
Compound: C[C@H](CO)N1C[C@H](C)[C@H](CN(C)Cc2ccc3c(c2)OCO3)Oc2ccc(NC(=O)Nc3cccc4ccccc34)cc2C1=O

IC50 [2]: 50.2 µM (active)
Compound: COc1cc(/C=N/N2C(=O)c3ccccc3C2=O)ccc1O

IC50 [2]: 54.9 µM (active)
Compound: CCOc1cc(/C=N/NC(=O)C(OC)c2ccccc2)ccc1O (stereo unspecified)

IC50 [2]: 91 µM (active)
Compound: O=C1ON=C(c2ccccc2)/C1=C/c1ccco1
